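Assay format: 96-well plates, 48-hour exposure. The concentration for 50% growth inhibition is given as GI50.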 Active and inactive are the calls of the source. Rule as the data show it: active = GI50 up to about 1.1 µM and inactive = higher.
How the values were obtained:
Experiment in all cases: DTP human tumour cell line panel, 48 h
CAKI-1 = tested on: CAKI-1
HCC 2998 = tested on: HCC 2998
786-0 = tested on: 786-0
HT-29 = tested on: HT-29
OVCAR-4 = tested on: OVCAR-4
SF-295 = tested on: SF-295
TK-10 = tested on: TK-10
UO-31 = tested on: UO-31
MDA-N = tested on: MDA-N
IGROV-1 = tested on: IGROV-1
CCRF-CEM = tested on: CCRF-CEM
MOLT-4 = tested on: MOLT-4
MDA-MB-435 = tested on: MDA-MB-435
NCI-H23 = tested on: NCI-H23
OVCAR-8 = tested on: OVCAR-8
NCI-H522 = tested on: NCI-H522
HOP-62 = tested on: HOP-62
SK-OV-3 = tested on: SK-OV-3

Measured: GI50

O=C(NN1C(=O)c2ccccc2C1=O)c1ccccc1Nc1ccccc1C(=O)NN1C(=O)c2ccccc2C1=O
inactive: CAKI-1 > 100 µM | HCC 2998 > 100 µM | 786-0 > 100 µM | HT-29 > 100 µM | OVCAR-4 > 100 µM | SF-295 > 100 µM | TK-10 > 100 µM | UO-31 > 100 µM | MDA-N > 100 µM | IGROV-1 > 100 µM | CCRF-CEM > 100 µM | MOLT-4 > 100 µM | MDA-MB-435 > 100 µM | NCI-H23 > 100 µM | OVCAR-8 > 100 µM | NCI-H522 > 100 µM | HOP-62 > 100 µM

C=C(C)CNC(=S)N(N)c1ccc2ccccc2c1
inactive: HCC 2998 47.3 µM | 786-0 > 100 µM | HT-29 65.3 µM | OVCAR-4 > 100 µM | SF-295 94.2 µM | TK-10 23.6 µM | UO-31 61.1 µM | MDA-N > 100 µM | IGROV-1 11.4 µM | CCRF-CEM 95.3 µM | SK-OV-3 > 100 µM | MOLT-4 > 100 µM | MDA-MB-435 72.3 µM | NCI-H23 > 100 µM | OVCAR-8 > 100 µM | NCI-H522 46.6 µM | HOP-62 > 100 µM

O=C1CN(/N=C/c2ccc(-c3ccc(F)cc3)o2)C(=O)N1
inactive: CAKI-1 58.6 µM | HCC 2998 80.9 µM | 786-0 > 100 µM | SF-295 55.7 µM | TK-10 69.2 µM | UO-31 75.2 µM | MDA-N 16.9 µM | IGROV-1 41.6 µM | CCRF-CEM > 100 µM | SK-OV-3 > 100 µM | MOLT-4 91.4 µM | MDA-MB-435 18.5 µM | NCI-H23 82.6 µM | OVCAR-8 > 100 µM | NCI-H522 21.1 µM | HOP-62 > 100 µM

CC(=O)N1c2ccccc2C2=NN(C)C(=N)SC21 (configuration not stated)
inactive: HCC 2998 > 100 µM | 786-0 > 100 µM | HT-29 > 100 µM | OVCAR-4 > 100 µM | SF-295 50.4 µM | TK-10 > 100 µM | UO-31 28 µM | MDA-N > 100 µM | CCRF-CEM > 100 µM | MOLT-4 > 100 µM | MDA-MB-435 89.3 µM | NCI-H23 > 100 µM | OVCAR-8 > 100 µM | NCI-H522 67.8 µM | HOP-62 > 100 µM

CN(C)CCNc1nc2ccccc2c2c1CCCC2
inactive: CAKI-1 16.9 µM | HCC 2998 12.5 µM | 786-0 16.4 µM | HT-29 22.8 µM | OVCAR-4 48.9 µM | SF-295 15.9 µM | TK-10 14.5 µM | UO-31 11.2 µM | MDA-N 16.1 µM | IGROV-1 17.2 µM | SK-OV-3 18.2 µM | MOLT-4 23.2 µM | MDA-MB-435 18.2 µM | NCI-H23 33.3 µM | OVCAR-8 31.8 µM | NCI-H522 16.3 µM | HOP-62 16.5 µM

— ChEMBL document CHEMBL1201862, “PubChem BioAssay data set” (2004)
